Data on five compounds can be found in publication PMC8394033, “Cytocidal Antitumor Effects against Human Ovarian Cancer Cells Induced by B-Lactam Steroid Alkylators with Targeted Activity against Poly (ADP-Ribose) Polymerase (PARP) Enzymes in a Cell-Free Assay” (Biomedicines, 2021).

The structures appear in SMILES notation. Several values for one entry are separate records, joined by “and”; a condition that tells them apart may be missing. Equal entries are not always repeated. Where two headings read alike, the source gives them in different places. Marks after values point to notes of the source that are not given here.

Data set [1] concerns UWB1.289. As to conditions: for GI50: read-out: GI50 ±SEM (50% inhibition of cell growth, cytostatic); for IC50: read-out: IC50 ±SEM (50% cytocidal effect, cytotoxic).
The test system of data set [2] is UWB1.289. The experiment in a line: Sister chromatid exchanges (SCEs) assay, genotoxicity and PRI.
Data set [3] has as its system PARP1 mRNA (PARP1/ACTB). Type of data set: cell-based, human.
Data set [4] relates to SKOV-3. As to conditions: for GI50: read-out: GI50 ±SEM (50% inhibition of cell growth, cytostatic); for IC50: read-out: IC50 ±SEM (50% cytocidal effect, cytotoxic).
Data set [5] relates to OVCAR-3. The settings on record: for GI50: read-out: GI50 ±SEM (50% inhibition of cell growth, cytostatic); for IC50: read-out: IC50 ±SEM (50% cytocidal effect, cytotoxic).
The subject of data set [6] is PHA-stimulated PBMCs (T-lymphocytes) from healthy donors. Description: Sister chromatid exchanges (SCEs) assay, genotoxicity and PRI.
In data set [7] the test system is MRC-5. The experiment in a line: MTT assay, selectivity on normal lung fibroblasts. The settings on record: for GI50: Homo sapiens, MRC5, 48 h, read-out: GI50 ±SEM (50% inhibition of cell growth, cytostatic).
A short description of data set [8]: MTT assay, selectivity on normal lung fibroblasts. The settings on record: human, MRC-5 normal lung fibroblasts.
The subject of data set [9] is OVCAR-3. As to conditions: human.
Data set [10] in a line: in vitro. As to conditions: human.
Data set [11] relates to UWB1.289. The settings on record: human.
Data set [12] relates to SKOV-3. As to conditions: human.
The subject of data set [13] is UWB1.289. As to conditions: human. This is another data set of the same source.
Data set [14] relates to PHA-stimulated PBMCs (T-lymphocytes) from healthy donors. The settings on record: human.
In data set [15] the test system is PARP2 mRNA (PARP2/ACTB). The experiment in a line: PARP2 mRNA expression analysis by qRT-PCR. Type of data set: cell-based, human. The settings on record: UWB1.289, vs untreated cells, 20 and 40 μΜ, 72 h.

As to `NC(=O)c1cccc(N)c1` [3-AB, 3-Aminobenzamide, reference compound], in data set [1] (UWB1.289, 48 h treatment, MTT), the “TGI ±SEM (100% cell growth inhibition, cytostatic)” value is above 100 µM; the GI50 is 92 ± 13 µM; the IC50 is above 100 µM. Moreover, in data set [2] (UWB1.289, 3 μM), the “SCE/Chromosome ± SEM” value is listed as 0.43 ± 0.025 and the “SCEs/Metaphase ± SEM” value is given as 31.91 ± 1.88. Further, the “alterations in the PARP1/ACTB mRNA cellular content” value in data set [3] is on record as “non-significant alterations”. Besides, in [4] (SKOV-3, 48 h treatment, MTT), the “TGI ±SEM (100% cell growth inhibition, cytostatic)” value was above 100 µM; the concentration for 50% growth inhibition (GI50) is above 100 µM; the IC50 was above 100 µM. Also, in data set [5] (OVCAR-3, 48 h treatment, MTT), the “TGI ±SEM (100% cell growth inhibition, cytostatic)” value is above 100 µM; the GI50 was above 100 µM; the IC50 was above 100 µM. In data set [6] (mean of 5 donors' PBMCs, 3 μM), the “Mean PRI ± SD” value is 2.696 ± 0.12, the “Mean SCE/Chromosome ± SD” value stood at 0.30 ± 0.03 and the “Mean SCEs/metaphase Mean ± SD” value is 14.03 ± 1.24. In addition, the GI50 in [7] was above 100 µM. In addition, in data set [7] (MRC-5 normal human lung fibroblasts, 48 h treatment, MTT), the “TGI ±SEM (100% cell growth inhibition, cytostatic)” value is above 100 µM. In data set [8], the IC50 at 48 h was above 100 µM.
With `C[C@]12CC[C@H](OC(=O)CCOc3ccc(N(CCCl)CCCl)cc3)CC1=CC(=O)NC1C2CC[C@]2(C)C(=O)CCC12` (stereo partly shown) [ASA-A, 7a,9a-dimethyl-2,10-dioxo-1,2,4,5,6,7,7a,7b, 8,9,9a,10,11,12,12a,12b-hexadecahydrobenzo[d]indeno [4,5-b]azepin-5-yl 3-(4-(bis(2-chloroethyl)amino)phenoxy)propanoate], the “TGI ±SEM (100% cell growth inhibition, cytostatic)” value was 52 ± 4.61 µM in data set [1], 33 ± 2.79 µM in [4], 38 ± 2.95 µM in data set [5] and above 100 µM in data set [7]. In addition, the GI50 in data set [1] came out at 19 ± 1.83 µM; in data set [4], 15 ± 1.26 µM; in [5] it was 29 ± 3.04 µM; in data set [7], 69 ± 7.13 µM. Further, the “PRI (Proliferation Rate Index)” value in data set [2] was 1.88 *; in data set [6], 2.13 and 2.21 and 1.98 and 2.32 and 2.26. Also, the IC50 in data set [9] is 47 ± 4.82 µM; in [10], above 100 µM; in data set [12], 67 ± 7.11 µM; in data set [13], 71 ± 7.01 µM. Further, in [6], the “Mean PRI ± SD” value was 2.18 ± 0.13. In addition, the “SCE/Chromosome ± SEM” value in [11] turned out to be 1.0 ± 0.054. The “SCEs/Metaphase ± SEM” value in data set [11] stood at 73.78 ± 4.03. Further, the “Mean SCE/Chromosome ± SD” value in data set [14] stood at 0.66 ± 0.04. Moreover, the “Mean SCEs/metaphase Mean ± SD” value in data set [14] is reported as 30.28 ± 2.03.
On to `CC(C)CCCC(C)[C@H]1CCC2C3NC(=O)C=C4C[C@@H](OC(=O)CCOc5ccc(N(CCCl)CCCl)cc5)CC[C@]4(C)C3CC[C@@]21C` (stereo partly drawn) [ASA-C, 7a,9a-dimethyl-10-((R)-6-methylheptan-2-yl)-2-oxo-1,2,4,5,6,7,7a,7b,8,9,9a,10,11,12,12a,12b-hexadecahydrobenzo[d]indeno[4,5-b]azepin-5-yl 3-(4-(bis(2-chloroethyl)amino)phenoxy)propanoate], for which the “TGI ±SEM (100% cell growth inhibition, cytostatic)” value in data set [1], in [4], in [5] and in data set [7] was above 100 µM in each case. The GI50 in [1] is 73 ± 7.58 µM; in data set [4], above 100 µM; in data set [5], above 100 µM; in data set [7] it was above 100 µM. Also, the “PRI (Proliferation Rate Index)” value in [2] is 2.15; in data set [6], 2.48 and 2.72 and 2.47 and 2.65 and 2.74. For the same compound, the IC50 in data set [9], in [10], in data set [12] and in [13] was above 100 µM throughout. Moreover, the “Mean PRI ± SD” value in data set [6] is listed as 2.612 ± 0.13. Also, the “SCE/Chromosome ± SEM” value in [11] was 0.33 ± 0.02. Also, in data set [11], the “SCEs/Metaphase ± SEM” value is recorded as 24.53 ± 1.72. In data set [14], the “Mean SCE/Chromosome ± SD” value turned out to be 0.19 ± 0.08. Moreover, in [14], the “Mean SCEs/metaphase Mean ± SD” value is reported as 8.81 ± 0.4.
`CC12CCC3C(NC(=O)C=C4CC(OC(=O)CCOc5ccc(N(CCCl)CCCl)cc5)CCC43C)C1CCC(=O)N2` (stereo not shown) [ASA-B, 11a,13a-dimethyl-2,6-dioxo-2,3,4,4a,4b,5,6,8,9,10,11,11a,11b,12,13,13a-hexadecahydro-1H-benzo[4,5]azepino [2,3-f]quinolin-9-yl 3-(4-(bis(2-chloroethyl)amino)phenoxy)propanoate]: the “TGI ±SEM (100% cell growth inhibition, cytostatic)” value in data set [1] was 35 ± 3.63 µM; in data set [4] it was 51 ± 4.46 µM; in data set [5], 81 ± 7.82 µM; in data set [7] it was above 100 µM. Further, the GI50 was found to be 10 ± 0.81 µM in data set [1], 24 ± 2.42 µM in data set [4], 44 ± 5.04 µM in data set [5] and 86 ± 9.95 µM in data set [7]. The “PRI (Proliferation Rate Index)” value in data set [2] was 1.77 *; in [6], 2.30 and 2.18 and 2.04 and 2.34 and 2.29. The IC50 in data set [9] is above 100 µM; in data set [10], above 100 µM; in data set [12], 98 ± 8.97 µM; in data set [13], 54 ± 5.11 µM. For the same compound, in data set [15], the “increase of the PARP2/ACTB mRNA ratio” value was 140- to150 fold. Also, in data set [6], the “Mean PRI ± SD” value is 2.23 ± 0.12. Besides, the “SCE/Chromosome ± SEM” value in [11] worked out at 1.17 ± 0.07. Also, the “SCEs/Metaphase ± SEM” value in [11] was 86.76 ± 4.97. In addition, in data set [14], the “Mean SCE/Chromosome ± SD” value was determined as 0.86 ± 0.06. In addition, the “Mean SCEs/metaphase Mean ± SD” value in data set [14] is on record as 39.54 ± 2.84.
As for `O=C(c1cc(Cc2n[nH]c(=O)c3ccccc23)ccc1F)N1CCN(C(=O)C2CC2)CC1` [Olaparib], the “TGI ±SEM (100% cell growth inhibition, cytostatic)” value in data set [1] is 85 ± 9.34 µM; in data set [4], above 100 µM; in [5], above 100 µM; in data set [7] it was above 100 µM. In addition, the GI50 in data set [1] is 14 ± 1.78 µM; in [4], above 100 µM; in [5], 32 ± 4.64 µM; in data set [7], above 100 µM. In addition, the IC50 in data set [1] (UWB1.289, 48 h treatment, MTT) is above 100 µM; in data set [4] (SKOV-3, 48 h treatment, MTT), above 100 µM; in data set [5] (OVCAR-3, 48 h treatment, MTT), above 100 µM. For the same compound, the “PRI (Proliferation Rate Index)” value in data set [2] (UWB1.289, 3 μM) was 1.98 *; in data set [6] (Donor 1 PBMCs, 3 μM), 2.60; in data set [6] (Donor 2 PBMCs, 3 μM), 2.56; in data set [6] (Donor 3 PBMCs, 3 μM), 2.47; in data set [6] (Donor 4 PBMCs, 3 μM), 2.76; in data set [6] (Donor 5 PBMCs, 3 μM), 2.34. Moreover, the “SCE/Chromosome ± SEM” value is 0.90 ± 0.06 in [2] (UWB1.289, 3 μM); 0.44 ± 0.02 in [6] (Donor 1 PBMCs, 3 μM); 0.47 ± 0.03 in [6] (Donor 2 PBMCs, 3 μM); 0.52 ± 0.03 in data set [6] (Donor 3 PBMCs, 3 μM); 0.48 ± 0.03 in [6] (Donor 4 PBMCs, 3 μM); 0.55 ± 0.04 in [6] (Donor 5 PBMCs, 3 μM). For the same compound, the “SCEs/Metaphase ± SEM” value in data set [2] (UWB1.289, 3 μM) worked out at 66.78 ± 4.45; in data set [6] (Donor 1 PBMCs, 3 μM), 20.43 ± 1.1; in data set [6] (Donor 2 PBMCs, 3 μM), 21.6 ± 1.4; in data set [6] (Donor 3 PBMCs, 3 μM) it was 23.87 ± 1.5; in data set [6] (Donor 4 PBMCs, 3 μM) it was 21.92 ± 1.2; in [6] (Donor 5 PBMCs, 3 μM), 25.32 ± 1.6. The “Mean PRI ± SD” value in data set [6] (mean of 5 donors' PBMCs, 3 μM) stood at 2.546 ± 0.16. For the same compound, the “Mean SCE/Chromosome ± SD” value in data set [6] (mean of 5 donors' PBMCs, 3 μM) is 0.66 ± 0.04. The “Mean SCEs/metaphase Mean ± SD” value in data set [6] (mean of 5 donors' PBMCs, 3 μM) was determined as 22.63 ± 1.95. The compound further registered an IC50 at 48 h in [8] above 100 µM.
